From patent US9643968B2, “Fused acridine derivative and pharmaceutical composition, preparation method and use thereof” (Peking University, priority 2014, dated 2017)

How the values were obtained:
[1] = Body weight in U87MG tumor-bearing mice; type: in vivo, BALB/c nude mice; conditions: oral qd × 5/w
Experimental: (§1) Animals: Female 6-8 weeks BALB/c nude mice weighed 16 to 18 g. They were raised at SPF-level animal room with a 12 h light-dark cycle; drinking and eating were provided ad libitum.
(§2) Under aseptic conditions, U87MG cells in the logarithmic phase were digested and its density was adjusted. U87MG cells were inoculated hypodermically in BALB/c nude mice, 0.1 mL for each mouse. The diameter of the transplantation was measured with a Vernier caliper. After their tumor size was about 100-200 mm^3, 36 mice were randomly divided into 5 groups according to the tumor size. The mice of each group was orally administered the dose respectively according to the above-mentioned schedule, and the mice of the vehicle group were given same dose of saline. The first day of dosing named for D1. The long diameter and short diameter of the tumor size of each mouse were measured twice a week, and the body weights were recorded at the same time.
(§3) Indicators for antitumor efficacy evaluation including: relative tumor inhibition rate, body weight, general state of the mice and related toxicity index. Curves of tumor growth and body weight change of every group were plotted at the end of the experiment.

tumor cells (U87MG) = assay: Assay for inhibiting cancer cell clone formation (soft agar); type: cell-based, human; conditions: concentration range from 0.020 to 0.090 μM, 10-14 days
Experimental: Materials and methods: The tested tumor cells (U87MG) in the logarithmic phase were digested with 0.25% trypsin then percussed gently to the single cell state, and counted the live cells. The cells density was adjusted to 1×10^6[…] with DMEM containing 20% fetal bovine serum, and then diluted gradiently according to the experiment requirement.
Two concentrations (1.2% and 0.7%) of low melting point agarose fluid were prepared with distilled water respectively. A mixture of 1.2% agarose fluid and 2×DMEM medium (contains 2× antibiotics and 20% calf serum) was prepared in 1:1 ratio, then transferred (3 mL) into 6 cm diameter flat dishes, cooled to solidification to furnish the bottom agar which was stored in a CO2 incubator. The cell suspension (0.2 mL) was added to a mixture of 0.7% agarose and 2×DMEM medium which was prepared in 1:1 ratio in sterile tubes, and thoroughly mixed before injection to the precoated dishes to form the double layer agar. After the upper agar being solidified, the dishes were incubated in 37° C. and 5% CO2 for 10-14 days, each experiment was performed in 3-6 times.
The number of clones was counted under an inverted microscope. The clone formation rate was calculated.

U87MG cells = assay: In vivo antitumor activity test, U87MG subcutaneous xenograft; design: species or system BALB/c nude mice; conditions: oral qd × 5/w; for tumor inhibition rate (IR): 10 doses, by tumor weight
Experimental: as §1, §2
Indicators were observed, measured, and recorded from the first day of dosing. The tumor size was measured using a Vernier caliper to calculate tumor volume change and the tumor growth. After the tumor-burdened mice were executed and dissected, the tumor tissues were separated, and weighed.
as §3
The calculation formula for tumor volume (TV) is: TV=½×a×b^2, where a and b means long diameter and short diameter of the tumor size respectively.
Tumor inhibition rate IR (%)=(1−TTW/CTW)×100%, TTW: TW of the treatment group; CTW: TW of the control group.
Statistical analysis: Data were analyzed using SPSS 11.0 with Student t-test for comparisons and ANOVA. P-values <0.05 were considered significant.

[2] = tested on: U87MG (human glioblastoma cell); assay: MTT in vitro cytotoxicity, U87MG; type: cell-based; conditions: U-87 MG, 72 hr incubation
Experimental: (§4) Materials and methods: MTT (3-[4,5-dimethylthiazol-2-yl]-diphenyl tetrazolium bromide) method was employed to determine the antiproliferative activity of all the compounds of the Examples and Contrasting Examples in vitro against selected cell lines, including HCT116 (human colon cancer cell), PC-3 (human prostate cancer), HepG2 (human hepatocellular carcinoma), SK-OV-3 (human ovarian adenocarcinoma), MCF-7 (human breast cancer), U87MG (human glioblastoma cell) cell lines.
(§5) Procedure: Human tumor cells of HCT116, PC-3, HepG2, SK-OV-3, MCF-7, and U87MG were in vitro cultured, and collected until the cells grow to the logarithmic phase. The cells were centrifuged for 5 minutes at 1000 rpm, and supernatant was discarded. Subsequently appropriate culture medium was added to suspend the precipitation, and the concentration of cells was adjusted to 3.5˜5.5×10^4/mL. the suspensions of cells were seeded in 96-well microplate at 100 μL per well, and incubated in incubator (37° C., 5% CO2) for 24 hr. The compound to test was added. For the control group, equivalent concentration of DMSO (final concentration 0.5%) was added. For each group, three copy wells were set. After incubated for 72 hr, 20 μL 5 mg/mL of MTT was added into each well, and placed at 37° C. for 3 hr. 150 μL of DMSO was added into each wells, and vibrated the shaker at 37° C. for 5 mins, then measured the absorbance (OD) value at 492 nm/620 nm. The IC50 values were calculated using Prism 5.0 software.

[3] = tested on: HCT116 (human colon cancer cell); assay: MTT in vitro cytotoxicity, HCT116; type: cell-based; conditions: HCT-116, 72 hr incubation
Experimental: as §4, §5

[4] = tested on: PC-3 (human prostate cancer); assay: MTT in vitro cytotoxicity, PC-3; type: cell-based; conditions: 72 hr incubation, read-out: IC50 PC3
Experimental: as §4, §5

[5] = tested on: HepG2 (human hepatocellular carcinoma); assay: MTT in vitro cytotoxicity, HepG2; type: cell-based; conditions: 72 hr incubation
Experimental: as §4, §5

[6] = tested on: SK-OV-3 (human ovarian adenocarcinoma); assay: MTT in vitro cytotoxicity, SK-OV-3; type: cell-based; conditions: 72 hr incubation
Experimental: as §4, §5

[7] = tested on: MCF-7 (human breast cancer); assay: MTT in vitro cytotoxicity, MCF-7; type: cell-based; conditions: MCF7, 72 hr incubation
Experimental: as §4, §5

For `COc1ccc2nc3c(C)ccc4c3c(c2c1)C(=O)N4CCN(C)C.O=C(O)/C=C/C(=O)O` [Compound 5c′, 2-(2-(dimethylamino)ethyl)-9-methoxy-5-methylpyrrolo[2,3,4-kl]-acridin-1-(2H)-one fumarate], the “animal weight compared with the vehicle” value ([1]; high dose group (80 mg/kg)) was “grew slowly compared with the vehicle”, the “animal weight loss compared with the positive control (TMZ) group” value ([1]; high dose group (80 mg/kg)) was “significantly lower than the positive control” and the “animal weight compared with the vehicle” value ([1]; median dose group (40 mg/kg)) was “grew slowly compared with the vehicle”. The “inhibition of glioma cell clone formation” value (tumor cells (U87MG)) was “significantly inhibited”, the “tumor size compared with the vehicle” value (U87MG cells; high dose group (80 mg/kg)) was “significantly smaller than the vehicle” and the “tumor inhibition rate (IR)” value (U87MG cells; high dose group (80 mg/kg)) was 91%. The “tumor size compared with the vehicle” value (U87MG cells; median dose group (40 mg/kg)) was “significantly smaller than the vehicle” and the “tumor inhibition rate (IR)” value (U87MG cells; median dose group (40 mg/kg)) was 69%.

In the case of `O=C1c2c3ccccc3nc3cccc(c23)N1c1ccccc1` [Compound 6b, 2-phenylpyrrolo[2,3,4-kl]acridin-1-(2H)-one, reference compound], the IC50 [2] is reported as > 50 µM, the IC50 [3] is reported as > 50 µM and the IC50 [4] is reported as > 50 µM. The IC50 [5] was > 50 µM and the IC50 [6] was > 50 µM.

`CN(C)CCN1C(=O)c2c3cc(Br)ccc3nc3cccc1c23` [Compound 7a, 9-bromo-2-(2-(dimethylamino)ethyl)pyrrolo[2,3,4-kl]acridin-1-(2H)-one] gave an IC50 [7] of 1.97 µM, an IC50 [3] of 1.87 µM and an IC50 [5] of 1.85 µM.

Work on `CN(C)CCCN1C(=O)c2c3cc(Br)ccc3nc3cccc1c23` [Compound 7b, 9-bromo-2-(3-(dimethylamino)propyl)pyrrolo[2,3,4-kl]acridin-1-(2H)-one] yielded an IC50 [7] of 2.15 µM, an IC50 [3] of 2.27 µM and an IC50 [5] of 3.84 µM.

In the case of `CN(C)CCCN1C(=O)c2c3cc(I)ccc3nc3cccc1c23` [Compound 7d, 2-(3-(dimethylamino)propyl)-9-iodopyrrolo[2,3,4-kl]acridin-1-(2H)-one], the IC50 [7] is reported as 2.8 µM, the IC50 [3] is reported as 2.64 µM and the IC50 [5] is reported as 3.78 µM.

With `Cn1nnc2c(C(N)=O)ncn2c1=O` [TMZ, Temozolomide, reference compound] the “animal weight compared with the vehicle” value ([1]; 50 mg/kg) was “significant lower compared with the vehicle”.
